Measured values reported in patent publication US10925874B2, “Substituted pyrazolopyrimidines as glucocerebrosidase activators” (The United States of America, as Represented by the …, priority 2010, dated 2021).
Where “and” joins values, the source holds several entries; their conditions need not be identical. Equal entries are not always repeated.

molecular target: T1, N370S glucocerebrosidase from human spleen homogenate (Homo sapiens, UniProt P04062, N409S); assay: qHTS fluorogenic enzyme assay for activators of N370S glucocerebrosidase (4-methylumbelliferyl-beta-D-glucopyranoside substrate); assay type: biochemical; conditions: pH 5.0, 37° C. 40 min
T1 construct: N370S glucocerebrosidase from human spleen homogenate as the enzyme preparation; from tissue; host or cells: human spleen homogenate
T1 sequence (P04062 40-536 N409S): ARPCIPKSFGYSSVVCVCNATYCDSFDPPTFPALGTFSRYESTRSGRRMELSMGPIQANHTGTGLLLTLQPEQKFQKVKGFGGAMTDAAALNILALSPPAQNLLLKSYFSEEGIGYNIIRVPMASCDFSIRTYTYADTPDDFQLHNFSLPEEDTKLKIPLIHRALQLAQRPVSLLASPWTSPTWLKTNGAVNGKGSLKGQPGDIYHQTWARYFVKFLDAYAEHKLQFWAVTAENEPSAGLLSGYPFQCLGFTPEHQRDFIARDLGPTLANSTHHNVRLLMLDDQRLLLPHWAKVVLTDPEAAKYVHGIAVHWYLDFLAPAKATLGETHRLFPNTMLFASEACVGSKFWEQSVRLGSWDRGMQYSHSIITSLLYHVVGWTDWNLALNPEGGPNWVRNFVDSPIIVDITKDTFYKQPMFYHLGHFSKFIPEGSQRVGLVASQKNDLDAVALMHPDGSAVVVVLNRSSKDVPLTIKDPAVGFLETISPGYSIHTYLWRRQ
From the text: qHTS Assay for Inhibitors and Activators of N370S glucocerebrosidase as a Potential Chaperone Treatment of Gaucher Disease: Primary Screen Confirmation
This is a fluorogenic enzyme assay with 4-methylumbelliferyl-beta-D-glucopyranoside as the substrate and N370S glucocerebrosidase from human spleen homogenate as the enzyme preparation. Upon the hydrolysis of this fluorogenic substrate, the resulting product, […] which can be detected by a standard fluorescence plate reader. Data were normalized to the controls for basal activity (without enzyme) and 100% activity (with enzyme). The AC50 values were determined from concentration-response data modeled with the standard Hill equation.
Human spleen homogenate is prepared as follows by homogenizing spleen with assay buffer containing 50 mM citric acid (titrated with potassium phosphate to pH 5.0), 100 mM potassium chloride, 10 mM sodium chloride, 1 mM magnesium chloride, 0.01% Tween-20. The protein concentration of the human spleen homogenate is approximated 1.35 ug/ul.
The assay is performed in 1536 well plates according to the following protocol. (1) 2 ul spleen homogenate ([…] final) is added to each well. (2) 23 nL test compound in DMSO solution is added to each well. The final concentration of compound in the test well is 0.5 nM to 58 uM. (3) 2 ul of substrate (1 mM final) are added to each well. (4) Incubate assay plates at 37° C. for 40 min. (5) Add 2 ul stop solution (1M NaOH and 1M Glycine mixture, pH 10) to each well. (6) Detect the assay plate in a ViewLux plate reader (PerkinElmer) using 365 nm excitation with emission at 440 nm.

| AC50 | Structure (SMILES) |
| --- | --- |
| 2.51 µM | O=C(Nc1ccc(Br)cc1F)c1cnn2c1NC(=C1CC1)C=C2C(F)F [NCGC00182179-01, N-(4-bromo-2-fluorophenyl)-5-cyclopropylidene-7-(difluoromethyl)-4,5-dihydropyrazolo[1,5-a]pyrimidine-3-carboxamide] |
| 11.2 µM | CC(C)(C)C1CCC(NC(=O)c2cnn3c2NC(=C2CC2)C=C3C(F)F)CC1 (centres unmarked) [NCGC00182182-01, N-(4-tet-butylcyclohexyl)-5-cyclopropylidene-7-(difluoromethyl)-4,5-dihydropyrazolo[1,5-a]pyrimidine-3-carboxamide] |
| 12.6 µM | O=C(Nc1cccc(Nc2ccccc2)c1)c1cnn2c1NC(=C1CC1)C=C2C(F)F [NCGC00182185-01, 5-cyclopropylidene-7-(difluoromethyl)-N-(3-(phenylamino)phenyl)-4,5-dihydropyrazolo[1,5-a]pyrimidine-3-carboxamide] |
| 13 µM and 7.08 µM | O=C(Nc1ccccc1Sc1ccccc1)c1cnn2c1NC(=C1CC1)C=C2C(F)F [NCGC00182186-01, 5-cyclopropylidene-7-(difluoromethyl)-N-(2-(phenylthio)phenyl)-4,5-dihydropyrazolo[1,5-a]pyrimidine-3-carboxamide] |
| 12.6 µM | O=C(Nc1ccccc1Br)c1cnn2c1NC(=C1CC1)C=C2C(F)F [NCGC00182188-01, N-(2-bromophenyl)-5-cyclopropylidene-7-(difluoromethyl)-4,5-dihydropyrazolo[1,5-a]pyrimidine-3-carboxamide] |
| 14.1 µM | O=C(Nc1ccccc1Sc1ccccc1)c1cnn2c1NC(=C1CC1)C=C2C(F)(F)F [NCGC00182190-01, 5-cyclopropylidene-N-(2-(phenylthio)phenyl)-7-(trifluoromethyl)-4,5-dihydropyrazolo[1,5-a]pyrimidine-3-carboxamide] |
| 15.8 µM | C=C1C=C(C)n2ncc(C(=O)NCCCCCC)c2N1 [NCGC00182197-01, N-hexyl-7-methyl-5-methylene-4,5-dihydropyrazolo[1,5-a]pyrimidine-3-carboxamide] |
| 15.8 µM | C=C1C=C(C)n2ncc(C(=O)Nc3ccc(C)cn3)c2N1 [NCGC00182198-01, 7-methyl-5-methylene-N-(5-methylpyridin-2-yl)-4,5-dihydropyrazolo[1,5-a]pyrimidine-3-carboxamide] |
| 18.3 µM | Cc1cc(C)n2ncc(C(=O)NCc3cccc(Cl)c3)c2n1 [NCGC00187965-01, N-(3-chlorobenzyl)-5,7-dimethylpyrazolo[1,5-a]pyrimidine-3-carboxamide] |
| 6.18 µM | Cc1cc(C)n2ncc(C(=O)Nc3cc(F)cc(F)c3)c2n1 [NCGC00187967-01, N-(3,5-difluorophenyl)-5,7-dimethylpyrazolo[1,5-a]pyrimidine-3-carboxamide] |
| 2.59 µM | Cc1cc(C)n2ncc(C(=O)Nc3ccc4c(c3)CCC4)c2n1 [NCGC00187969-01, N-(2,3-dihydro-1H-inden-5-yl)-5,7-dimethylpyrazolo[1,5-a]pyrimidine-3-carboxamide] |
| 3.26 µM | CCc1ccc(NC(=O)c2cnn3c(C)cc(C)nc23)cc1 [NCGC00187970-01, N-(4-ethylphenyl)-5,7-dimethylpyrazolo[1,5-a]pyrimidine-3-carboxamide] |
| 10.3 µM | Cc1cc(C)n2ncc(C(=O)NC3CCCCC3)c2n1 [NCGC00187971-01, N-cyclohexyl-5,7-dimethylpyrazolo[1,5-a]pyrimidine-3-carboxamide] |
| 8.19 µM | Cc1cc(C)n2ncc(C(=O)Nc3ccccc3)c2n1 [NCGC00187975-01, 5,7-dimethyl-N-phenylpyrazolo[1,5-a]pyrimidine-3-carboxamide] |
| 51.7 µM | Cc1cc(C)n2ncc(C(=O)NCc3ccccc3)c2n1 [NCGC00187976-01, N-benzyl-5,7-dimethylpyrazolo[1,5-a]pyrimidine-3-carboxamide] |
| 32.6 µM | Cc1cc(C)n2ncc(C(=O)NCC(C)C)c2n1 [NCGC00187978-01, N-isobutyl-5,7-dimethylpyrazolo[,15-a]pyrimidine-3-carboxamide] |
| 25.9 µM | Cc1cc(C)n2ncc(C(=O)NC3CCC(C(C)(C)C)CC3)c2n1 (centres unmarked) [NCGC00188754-01, N-(4-tert-butylcyclohexyl)-5,7-dimethylpyrazolo[1,5-a]pyrimidine-3-carboxamide] |
| 4.11 µM | Cc1cc(C)n2ncc(C(=O)NC3CCC(C(C)(C)C)CC3)c2n1 (centres unmarked) [NCGC00188755-01, N-(4-tert-butylcyclohexyl)-5,7-dimethylpyrazolo[1,5-a]pyrimidine-3-carboxamide] |

| AC50 | Structure (SMILES) |
| --- | --- |
| 2.06 µM | Cc1cc(C)n2ncc(C(=O)Nc3ccc(Br)cc3)c2n1 [NCGC00188756-01, N-(4-bromophenyl)-5,7-dimethylpyrazolo[1,5-a]pyrimidine-3-carboxamide] |
| 51.7 µM | Cc1cc(C)n2ncc(C(=O)NCc3ccco3)c2n1 [NCGC00188759-01, N-(furan-2-ylmethyl)-5,7-dimethylpyrazolo[1,5-a]pyrimidine-3-carboxamide] |
| 16.3 µM | Cc1cc(C)n2ncc(C(=O)Nc3cnc4ccccc4c3)c2n1 [NCGC00188762-01, 5,7-dimethyl-N-(quinolin-3-yl)pyrazolo[1,5-a]pyrimidine-3-carboxamide] |
| 20.6 µM | Cc1cc(C)n2ncc(C(=O)Nc3ccc4ccccc4n3)c2n1 [NCGC00188763-01, 5,7-dimethyl-N-(quinolin-2-yl)pyrazolo[1,5-a]pyrimidine-3-carboxamide] |
| 2.31 µM | Cc1cc(C)n2ncc(C(=O)Nc3ccc(C(C)(C)C)cc3)c2n1 [NCGC00188764-01, N-(4-tert-butylphenyl)-5,7-dimethylpyrazolo[1,5-a]pyrimidine-3-carboxamide] |
| 5.8 µM | Cc1cc(C)n2ncc(C(=O)Nc3ccc(F)cc3)c2n1 [NCGC00188766-01, N-(4-fluorophenyl)-5,7-dimethylpyrazolo[1,5-a]pyrimidine-3-carboxamide] |
| 8.19 µM | COc1ccc(NC(=O)c2cnn3c(C)cc(C)nc23)cc1 [NCGC00188768-01, N-(4-methoxyphenyl)-5,7-dimethylpyrazolo[1,5-a]pyrimidine-3-carboxamide] |
| 20.6 µM | Cc1cc(C)n2ncc(C(=O)Nc3ccc(C#N)cc3)c2n1 [NCGC00188769-01, N-(4-cyanophenyl)-5,7-dimethylpyrazolo[1,5-a]pyrimidine-3-carboxamide] |
| 16.3 µM | Cc1cc(C)n2ncc(C(=O)Nc3ccccc3C)c2n1 [NCGC00188770-01, 5,7-dimethyl-N-o-tolylpyrazolo[1,5-a]pyrimidine-3-carboxamide] |
| 6.51 µM | Cc1cccc(NC(=O)c2cnn3c(C)cc(C)nc23)c1 [NCGC00188771-01, 5,7-dimethyl-N-m-tolylpyrazolo[1,5-a]pyrimidine-3-carboxamide] |
| 1.63 µM | Cc1ccc(NC(=O)c2cnn3c(C)cc(C)nc23)cc1 [NCGC00188772-01, 5,7-dimethyl-N-p-tolylpyrazolo[1,5-a]pyrimidine-3-carboxamide] |
| 10.3 µM | Cc1cc(C)n2ncc(C(=O)Nc3ccc4c(c3)OCCO4)c2n1 [NCGC00188773-01, N-(2,3-dihydrobenzo[b][1,4]dioxin-6-yl)-5,7-dimethylpyrazolo[1,5-a]pyrimidine-3-carboxamide] |
| 51.7 µM | COc1ccc(NC(=O)c2cnn3c(C)cc(C)nc23)c(C)c1 [NCGC00188774-01, N-(4-methoxy-2-methylphenyl)-5,7-dimethylpyrazolo[1,5-a]pyrimidine-3-carboxamide] |
| 1.46 µM | COc1ccc(NC(=O)c2cnn3c(C)cc(C)nc23)cc1F [NCGC00188776-01, N-(3-fluoro-4-methoxyphenyl)-5,7-dimethylpyrazolo[,15-a]pyrimidine-3-carboxamide] |
| 13 µM | Cc1ccc(NC(=O)c2cnn3c(C)cc(C)nc23)c(C)c1 [NCGC00188778-01, N-(2,4-dimethylphenyl)-5,7-dimethylpyrazolo[1,5-a]pyrimidine-3-carboxamide] |
| 11.6 µM | Cc1ccc(NC(=O)c2cnn3c(C)cc(C)nc23)c(F)c1 [NCGC00188779-01, N-(2-fluoro-4-methylphenyl)-5,7-dimethylpyrazolo[1,5-a]pyrimidine-3-carboxamide] |
| 2.06 µM | COc1ccc(NC(=O)c2cnn3c(C)cc(C)nc23)cc1Cl [NCGC00188780-01, N-(3-chloro-4-methoxyphenyl)-5,7-dimethylpyrazolo[1,5-a]pyrimidine-3-carboxamide] |
